Measurements: paper PMC11939889, “Efficient Incorporation of DOPA into Proteins Free from Competition with Endogenous Translation Termination Machinery” (Biomolecules, 2025)

Target: T1, DOPARS (Methanocaldococcus jannaschii, UniProt Q57834, D158A/D286A/E220K/F261S/H283P/H70A/I159A/L282P/L65E/M285R/N268D/P284L/Y119F)
T1 construct: gene tyrS
Assay: isothermal titration calorimetry
Assay type: binding

T1 sequence (Q57834 whole entry L65E/H70A/Y119F/D158A/I159A/E220K/F261S/N268D/L282P/H283P/P284L/M285R/D286A): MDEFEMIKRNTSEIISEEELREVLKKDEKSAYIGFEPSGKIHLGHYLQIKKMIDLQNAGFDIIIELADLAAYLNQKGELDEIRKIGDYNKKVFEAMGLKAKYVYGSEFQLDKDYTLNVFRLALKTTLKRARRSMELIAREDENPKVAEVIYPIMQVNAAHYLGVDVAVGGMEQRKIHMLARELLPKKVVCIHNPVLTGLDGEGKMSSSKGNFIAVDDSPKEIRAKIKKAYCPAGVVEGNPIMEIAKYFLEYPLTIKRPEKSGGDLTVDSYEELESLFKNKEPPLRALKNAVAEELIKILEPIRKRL

Kd: 11.7 µM
Compound: N[C@@H](Cc1ccc(O)c(O)c1)C(=O)O [DOPA, 3,4-Dihydroxy-L-phenylalanine]
